From US20100291225A1, “Stabilized Sustained Release Composition of Bupropion Hydrochloride and Process For Preparing the Same” (priority 2008, published 2010)

Details: in vivo, po, 150 mg
Description: This example describes an in-vivo study, which measured plasma concentrations of bupropion achieved after oral administration of reference Wellbutrin® SR tablet and test bupropion hydrochloride sustained release tablets of example 1. The in-vivo study was carried out on 12+2 standby healthy adult subjects under fasting conditions. Plasma bupropion was determined over a 120 hour period, after single oral administration of the respective formulations. Each subject was administered each of the two formulations in cross over design separated by a washout period of 14 days between administrations of the two formulations. Plasma levels were measured at predetermined times utilizing a validated assay method employing LC-MS/MS instrumentation. Plasma pharmacokinetic parameters were evaluated using commercially available software WinNonlin version 5.0.1 or higher. The statistical analysis was performed using SAS® package (SAS® Institute Inc., USA version 9.1 or higher). Values derived at each time point and to determine the area under the curve (AUC) and maximum concentration (Cmax) afforded by Wellbutrin®SR and the test formulation.

CC(NC(C)(C)C)C(=O)c1cccc(Cl)c1 (stereo not drawn) [Wellbutrin ®SR]
AUC0-t: 894.88 ngh/ml | AUC0-α: 951.251 ngh/ml | Cmax: 111.178 ng/mL
